“And” between values parts separate entries of the source, which are not always exact repeats. Identical values can stand only once.
Columns and labels:
[1] = test system: saphenous vein of rabbits; assay: Contractile effect on rabbit saphenous vein rings precontracted by depolarizing physiological solution (40 mM potassium); design: species or system rabbit (New Zealand); settings: Oryctolagus cuniculus, precontracted at 40 mM potassium; for Emax: % of maximum contraction induced by depolarizing hyperpotassic solution, read-out: Emax (% of maximum contr.); for EC50: read-out: ED50 (the source's name)
Experimental: For the in vitro studies, the compounds are made soluble in a pure aqueous solution or a solution containing DMSO (dimethyl sulfoxide).
Contractile effects are measured, in vitro and under static conditions, on capacitance or resistance vascular rings of the saphenous, femoral, jugular, mesenteric, and caval veins; and on the femoral, carotid, basilar, mesenteric, and thoracic or abdominal aortic arteries, in rats (Wistar, 200 to 250 g), rabbits (New Zealand, 2 to 2.5 kg), and guinea pigs (Dunkin Hartley, 250 to 300 g).
The rings are placed in an isolated organ chamber (25 mL for capacitance vessels and 2.5 mL for resistance vessels, as per Mulvany), kept in isometric conditions by two stiff cables inserted into the interior of the vessel, avoiding any damage to the endothelium. The vessels are washed in a modified Krebbs solution (in mM: NaCl=118; KCl=4.6; ClCl2 =2.5; MgSO4 =1.2; KH2 PO4 =1.17; NcHCO3 =25; glucose=11), permanently aerated by a gaseous mixture at 95% O2 and 5% CO2, at pH=7.4 and set thermostatically at 37° C. The rings are taken to their optimal point of the tension-length ratio.
The tensions developed generate an electrical signal through a strength sensor (Wheatstone bridge). […] The pharmacological studies are carried out after some preliminary contractile stimulations standardized by a depolarizing solution (hyperpotassic solution obtained by replacing NaCl by KCl in equimolar quantities), rinses, and balancing periods in pure physiological solution. Presence of the endothelium is verified by the relaxation induced by increasing concentrations of acetylcholine after stabilization of a vascular precontraction.
The contraction forces developed by the vascular rings in response to the different compounds are studied on quiescent or electrically stimulated (5-8 Hz) vessels, using a hyperpotassic depolarizing physiological solution (KCl: 20, 40 mM), using noradrenaline (increasing concentrations), or using serotonin (increasing concentrations).
The contractions are expressed in mg of force or as a percentage of maximum contraction at depolarization by a hyperpotassic physiological solution.
The compounds of the invention and their derived salts selectively increase, in the majority of cases, the contraction of animal veins produced by noradrenaline, by electrical stimulation, or by a depolarizing hyperpotassic solution. By way of example, there is the contractile effect of different compounds on the saphenous vein of rabbits, precontracted by a depolarizing physiological solution with a potassium concentration equal to 40 mM; the maximum effect produced by each compound is expressed as the percentage of maximum contraction induced by the depolarizing hyperpotassic solutions and in ED50 values: […]

mice = assay: Acute oral toxicity in mice; assay type: in vivo; settings: single oral administration, 1 g/kg
Description: Furthermore, the compounds of the invention and their derived salts have a very low toxicity.

[2] = test system: inflammatory hyperpermeability induced by zymosan in rats; assay: Effects on capillary hyperpermeability induced by zymosan in rats (Evans Blue albumin extravasation); assay type: in vivo, rat (Wistar); settings: rat, oral
Experimental: (§1) As for the in vivo studies, they are administered intravenously or intraperitoneally in the form of an aqueous solution with or without DMSO, or orally in a 1% carboxymethylcellulose suspension, administered with the use of a force-feed probe at a volume of 10 mL/kg.
Effects on induced capillary hyperpermeability
Vascular permeability is studied in vivo by measuring albumin extravasation, the quantity of which is determined by a coloring agent bonded to the albumin (Evans Blue). Hyperpermeability is induced by the intradermal injection of a histamine, bradykinin, or zymosan solution.
The technique is derived from that described by Beach and Steinetz, Journal of Pharmacology and Experimental Therapy, 131: 400-406, 1961.
The rats (Wistars, 200 to 230 g) are shaved on the abdominal wall 1 h before the start of the experiment. The product to be tested is injected i.p. or orally 1-4 h prior to sacrificing. The rats are anesthetized using a halothane mixture. They then receive an intradermal injection in the abdomen of 0.10 to 0.15 mL of an inflammatory agent (by histamine 6.7 or 10 μg) and an i.v. injection of 1 mL of Evans blue 0.5% solution in the vein of the penis. These injections are carried out 30 min prior to sacrificing.
30 min after these two injections, the rats are sacrificed by cervical dislocation.
At the locus of injection of the inflammatory agent, the skin is cut off and placed in ground-neck glass tubes containing 3 mL of fuming hydrochloric acid. Digestion of the skin is carried out by contact [with HCl] of at least 1 h in a double boiler at 37° C.; 3 mL of benzalkonium chloride at 12.8% are then added. After leaving undisturbed for 30 min, 7 mL of dichloromethane are added. The tubes are periodically agitated for 1 h. The aqueous phase is eliminated by aspiration and the organic dichloromethane phase is filtered. The optical densities are quantified by absorption spectrophotometry at a 620 nm wavelength, against a blank [control] containing only dichloromethane.
The averages for optical density of the different lots of experimental and control animals are calculated, then the variation between the data for the experimental animals and those for the control animals is calculated.
By way of illustration, the oral administration of certain compounds of the invention and their derived salts reduce inflammatory hyperpermeability induced by zymosan in rats in doses generally between 0.01 and 5 mg/kg: […]

[3] = test system: capillary resistance in rats; assay: Effects on capillary resistance (petechial index, negative pressure) after oral administration in rats; assay type: in vivo, rat (male Wistar); settings: rat
Experimental: as §1
Effects on capillary resistance:
The increase in capillary resistance is detected by the change in the petechial index (negative pressure inducing the extravasation of erythrocytes), measured by a method derived from Parrot's angiosterrometer.
The study is carried out on male Wistar rats weighing an average of 200 g (aged approximately 6 weeks). The lower back area is shaved, then depilated with the use of a paste based on a by-product of thioglycolic acid and calcium hydroxide. After approximately 30 min, the skin is rinsed abundantly and dried.
On the day of the study, the rats are kept nonconstrained. A low pressure of 80 mm of mercury is applied.
The minimum low pressure at which the petechiae appear expressed in mm of mercury, the value of the base capillary resistance (before any treatment). Two measurements are carried out for each trial on different places on the back. The rats are treated orally. After a predetermined amount of time (generally 2, 4, or 6 h) after the treatment, the test is renewed on different areas of skin, until petechiae appear, yielding a new low pressure index. All measurements are carried out in the blind mode.
The variation between the means of the base capillary resistance and post-treatment capillary resistance is calculated for the experimental animals, for each treatment time and compared to the control group (excipient only) or the reference group.
By way of example, the oral administration of certain compounds of the invention and their derived salts increases the capillary resistance in rats at doses generally between 0.01 and 5 mg/kg: […]

Compound | EC50 [1] [µM] | Emax [1] [%] | mortality (mice) | toxic effect (mice) | Effect at 2 hours (hyperpermeability induced by zymosan) ([2]; 5 mg/kg) | Effect at 4 hours (hyperpermeability induced by zymosan) ([2]; 5 mg/kg) | Effect at 4 hours (capillary resistance) ([3]; 5 mg/kg) | Effect at 6 hours (capillary resistance) ([3]; 5 mg/kg) | Effect at 2 hours (hyperpermeability induced by zymosan) ([2]; 0.1 mg/kg) | Effect at 4 hours (hyperpermeability induced by zymosan) ([2]; 0.1 mg/kg) | Effect at 6 hours (capillary resistance) ([3]; 0.1 mg/kg) | Effect at 4 hours (capillary resistance) ([3]; 0.1 mg/kg)
O=C1C(=O)c2c(nc3ccccn23)-c2ccccc21 [Example a, 5,6-Dihydro-5,6-dioxo-naphtho[1',2':4,5]imidazo[1,2-a] pyridine] | 0.306 | 32 ± 7 | no mortality was observable | no toxic effect was observable | -1 % of control | -28 % of control |  |  |  |  |  | 
Cc1ccc2nc3c(n2c1)C(=O)C(=O)c1ccccc1-3 [Example 1, 5,6-Dihydro-5,6-dioxo-9-methyl-naphtho[1',2':4,5]-imidazo[1,2-a]pyridine] | 0.17 | 20 ± 4 |  |  |  |  |  |  |  |  |  | 
Cc1ccn2c3c(nc2c1)-c1ccccc1C(=O)C3=O [Example 2, 5,6-Dihydro-5,6-dioxo-10-methyl-naphtho[1',2':4,5]-imidazo[1,2-a] pyridine] | 0.271 | 28 ± 4 | no mortality was observable | no toxic effect was observable |  |  | 11 % of control | 13 % of control | -10 % of control | -15 % of control |  | 
O=C1C(=O)c2c(nc3ccc(Cl)cn23)-c2ccccc21 [Example c, 9-Chloro-5,6-dihydro-5,6-dioxo-naphtho[1',2':4,5]-imidazo[1,2-a]pyridine] | 0.157 | 27 ± 4 | no mortality was observable | no toxic effect was observable |  |  | 17 % of control | 10 % of control | -14 % of control | -11 % of control | 29 % of control and 17 % of control | 

Now from value to compound, other results behind:

EC50 [1] [µM] | Compound | Emax [1] [%] | mortality (mice) | toxic effect (mice) | Effect at 2 hours (hyperpermeability induced by zymosan) ([2]; 5 mg/kg) | Effect at 4 hours (hyperpermeability induced by zymosan) ([2]; 5 mg/kg) | Effect at 4 hours (capillary resistance) ([3]; 5 mg/kg) | Effect at 6 hours (capillary resistance) ([3]; 5 mg/kg) | Effect at 2 hours (hyperpermeability induced by zymosan) ([2]; 0.1 mg/kg) | Effect at 4 hours (hyperpermeability induced by zymosan) ([2]; 0.1 mg/kg) | Effect at 6 hours (capillary resistance) ([3]; 0.1 mg/kg) | Effect at 4 hours (capillary resistance) ([3]; 0.1 mg/kg)
0.058 | O=C1C(=O)c2c(nc3cc(Cl)ccn23)-c2ccccc21 [Example 12, 10-Chloro-5,6-dihydro-5,6-dioxo-naphtho[1',2':4,5]-imidazo[1,2-a] pyridine] | 13 ± 3 |  |  |  |  |  |  |  |  |  | 
0.067 | O=C1c2ncccc2C(=O)c2c1nc1ccccn21 [Example h, 6,11-Dihydro-6,11-dioxo-pyrido[1',2':1,2]-imidazo[5,4-g]quinoline] | 18 ± 3 |  |  |  |  |  |  | -23 % of control | -5 % of control | 13 % of control | 19 % of control
0.2 | Cc1cccn2c3c(nc12)-c1ccccc1C(=O)C3=O [Example 3, 5,6-Dihydro-5,6-dioxo-11-methyl-naphtho[1',2':4,5]-imidazo[1,2-a] pyridine] | 18 ± 4 |  |  | -13 % of control | -12 % of control |  |  |  |  |  | 
0.45 | O=C1C(=O)c2c(nc3ncccn23)-c2ccccc21 [Example f] | 56 ± 7 |  |  |  |  |  |  |  |  |  | 
